The text below walks through data of US5622948A, “Pyrrole pyridazine and pyridazinone anti-inflammatory agents” (Syntex (U.S.A.) Inc., priority 1994, dated 1997).

SMILES strings stand for the structures. Several values for one entry are separate records, joined by “and”; a condition that tells them apart may be missing. Equal values may be shown once. Entries after “also recorded” stand apart in the source; their conditions may differ. Read-outs that look alike come from different tables or passages of the source. Bounds are passed on as bounds.

The target in assay [1] is T1, COX II (Homo sapiens, UniProt P35354).
T1 sequence (P35354 18-604): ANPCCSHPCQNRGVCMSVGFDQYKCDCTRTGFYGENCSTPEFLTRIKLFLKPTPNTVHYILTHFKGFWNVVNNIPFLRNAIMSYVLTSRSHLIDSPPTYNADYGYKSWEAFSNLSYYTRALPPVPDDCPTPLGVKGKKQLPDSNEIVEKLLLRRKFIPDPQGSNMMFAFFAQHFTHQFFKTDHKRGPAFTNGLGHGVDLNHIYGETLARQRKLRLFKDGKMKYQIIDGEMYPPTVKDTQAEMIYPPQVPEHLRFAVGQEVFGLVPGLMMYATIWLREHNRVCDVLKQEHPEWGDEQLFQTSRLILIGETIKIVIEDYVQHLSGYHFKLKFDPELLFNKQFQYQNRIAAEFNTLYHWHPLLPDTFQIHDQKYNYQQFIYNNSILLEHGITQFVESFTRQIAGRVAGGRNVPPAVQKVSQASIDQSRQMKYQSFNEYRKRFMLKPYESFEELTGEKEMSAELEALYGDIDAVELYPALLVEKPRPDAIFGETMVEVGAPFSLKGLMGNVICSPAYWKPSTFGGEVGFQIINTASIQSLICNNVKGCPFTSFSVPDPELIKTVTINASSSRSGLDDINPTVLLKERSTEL
Put plainly: radiometric assay, COX II inhibition (human recombinant, baculovirus expressed, partially purified). The class given is biochemical. The arrangement: A 1.8 Kb DNA fragment containing the coding region of human COX II was generated by PCR; made in house; host or cells: Sf9 insect cells, baculovirus. In outline:
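Partially purified baculovirus-expressed human enzyme preincubated with compound, 2 mM phenol (5 min) then 1 μM hematin (5 min). Reaction in Tris-HCl pH 7.9 with 20 μM 1-[14C]arachidonate for 45 s at room temperature, acid-stopped; oxygenated products isolated on Sep-Pak and counted by scintillation.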

Assay [2] has as its target T1, COX II. Put plainly: TxB2 production in human whole blood activated with lipopolysaccharide (COX II). The class given is cell-based. Conditions: 5 hr incubation with compound and 10 μg/ml LPS; RIA determination of TxB2; read-out: COX II IC50, inhibition of TxB2 production.
In assay [3] the target is COX I (Homo sapiens, UniProt P23219). Put plainly: radiometric assay, COX I inhibition (human recombinant, baculovirus expressed, partially purified). The arrangement: A 2 Kb fragment containing the coding region of COX I; made in house; host or cells: Sf9 insect cells, baculovirus (cDNA from Oxford Biomedical Research). The class given is biochemical. As to conditions: very low substrate concentration.

Assay [4] has as its system adjuvant-induced arthritis pain. Kind of assay: adjuvant-induced arthritis pain model in the rat. The class given is in vivo. As to conditions: preliminary test at 0.1, 1.0, 10 and 30 mg/kg, read-out: doses at which significant and prolonged analgesia is obtained. Here is the method: Compound (16) was also evaluated using an adjuvant-induced arthritis pain model in the rat, in which pain is assessed by eliciting a vocal response upon squeezing or flexing an inflamed ankle joint.

The target in assay [5] is T1, COX II. Kind of assay: PGE2 production in human adherent monocytes stimulated with LPS. The assay is classed as cell-based. Conditions: EIA, read-out: COX II IC50, inhibition of PGE2 production. On the procedure:
(§1) A summary of activities of Compound (16) against COX I and COX II in cell-free enzyme preparations and whole cells is presented in Table 1. The following abbreviations are used: AA is arachidonic acid, IL-1 is interleukin 1, PMA is phorbol myristate acetate, A23187 is a calcium ionophore (Sigma), BSA is bovine serum albumin and LPS is a lipopolysaccharide (Sigma).
Human adherent monocytes
(§2) 30 min incubation with Compound (16)
18 hr stimulation with LPS
a) 10 min activation, A23187 + PMA
(§3) washing, transfer to fresh media
(§4) b) 30 min activation, A23187 + PMA
c) 10 min activation, 20 μM AA
(§5) d) 30 min activation, 20 μM AA
(§6) EIA determination of PGE2

Assay [6] addresses T1, COX II. Kind of assay: PGE2 production in human foreskin fibroblasts stimulated with IL-1 and PMA. The assay is classed as cell-based. The arrangement: A 1.8 Kb DNA fragment containing the coding region of human COX II was generated by PCR; made in house; host or cells: Sf9 insect cells, baculovirus. Conditions: read-out: COX II IC50, inhibition of PGE2 production. Here is the method:
as §1
Human foreskin fibroblasts
as §2
16 hr admulation with IL-1 and PMA
as §3, §6
16 hr stimulation with IL-1 and PMA
RIA determination of PGE2

Assay [7] deals with COX I. Kind of assay: PGE2 production in freshly isolated human monocytes. As to conditions: EIA, cells may be expressing COX II constitutively, read-out: COX I IC50, inhibition of PGE2 production. The assay is classed as cell-based. On the procedure:
as §1
Human monocytes 30 min incubation with Compound (16)
freshly isolated a) 10 min activation, A23187 + PMA
These cells may be expressing COX II
as §4
constitutively c) 10 min activation, 20 μM AA
as §5, §6

[8] abbreviates: 30 min incubation; a) 10 min activation, A23187 + PMA.
The mark [9] stands for this setting: 30 min incubation; b) 30 min activation, A23187 + PMA.
Setting [10] is: 30 min incubation; c) 10 min activation, 20 μM AA.
Where [11] appears, read: 30 min incubation; d) 30 min activation, 20 μM AA.

COX I (Homo sapiens, UniProt P23219), sequence (P23219 24-599): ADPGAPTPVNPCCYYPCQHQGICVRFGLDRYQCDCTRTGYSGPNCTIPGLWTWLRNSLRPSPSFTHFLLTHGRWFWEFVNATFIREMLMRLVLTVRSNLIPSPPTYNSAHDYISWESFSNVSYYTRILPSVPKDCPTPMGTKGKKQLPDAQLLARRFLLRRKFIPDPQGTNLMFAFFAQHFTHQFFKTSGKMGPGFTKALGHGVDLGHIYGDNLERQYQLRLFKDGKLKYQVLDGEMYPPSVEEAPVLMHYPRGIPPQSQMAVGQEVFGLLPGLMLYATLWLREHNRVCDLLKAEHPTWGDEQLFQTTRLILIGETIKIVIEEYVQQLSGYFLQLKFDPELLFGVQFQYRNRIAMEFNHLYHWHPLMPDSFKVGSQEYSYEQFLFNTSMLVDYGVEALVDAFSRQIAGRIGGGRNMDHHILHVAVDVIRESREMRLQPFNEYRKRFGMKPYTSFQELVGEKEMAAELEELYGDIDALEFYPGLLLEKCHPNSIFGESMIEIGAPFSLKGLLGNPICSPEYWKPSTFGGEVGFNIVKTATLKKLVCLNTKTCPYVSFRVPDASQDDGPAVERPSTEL

Turning to `Cc1cc(Cc2ccc(=O)[nH]n2)n(C)c1C(=O)c1ccc(Cl)cc1` [Compound 16, 6-[1,4-dimethyl-5-(4chloro-benzoyl)-1H-pyrrol-2-ylmethyl]-2H-pyridazin-3-one], the “type of inhibition of COX II” value on COX II [1] is given as “potent, time-dependent, reversible inhibition”. Also, the half-inhibitory concentration (IC50) on COX II [1] (10 min incubation with compound, 45 sec incubation with 20 μM AA, separation of radioactive products, read-out: COX II IC50) was 580 to 900 nM and 580 nM and 900 nM and 640 nM; at COX II [2] it was 4.7 µM and 4.56 µM; at COX II [5] (setting [8]), 200 nM; at COX II [5] (setting [9]), less than 100 nM; on COX II [5] (setting [10]) it was 2800 nM; on COX II [5] (setting [11]), 540 nM. In addition, the IC50 is 120 nM and 170 nM and 140 nM at COX II [6] (30 min incubation, 10 min activation, 5 μM A23187, RIA determination of PGE2); no more than 100 nM at COX II [6] (30 min incubation; a) 10 min activation with 5 μM A23187, EIA determination of PGE2); roughly 2700 nM on COX II [6] (30 min incubation; b) 10 min activation with 20 μM AA + FA-free BSA, EIA determination of PGE2); 5.2 µM with COX I [7] (setting [8]); 0.31 µM with COX I [7] (setting [9]); 4.6 µM in the assay with COX I [7] (setting [10]). For the same compound, the half-inhibitory concentration (IC50) in the assay on COX I [7] (setting [11]) was greater than 10 µM. Moreover, at COX II [1] (COX II over COX I), the “selectivity for COX II” value is given as “significantly more selective for COX II than currently available NSAIDs; also recorded: highly selective for COX II”. The “type of inhibition of COX I” value at COX I [3] is given as “weak, competitive, non-time dependent inhibition”. In assay [4], the minimal effective dose is no less than 10 mg/kg.

The IC50 is the point on the concentration scale where inhibition reaches its midpoint.
